The test deals with Trace amine-associated receptor 1 (Mus musculus, UniProt Q923Y8). Description: Binding Assay: Radioligand binding assay: The radioligand [3H]-rac-2-(1,2,3,4-tetrahydro-1-naphthyl)-2-imidazoline was used at a concentration equal to the calculated Kd value of 60 nM to give a total binding at around 0.1% of the total added radioligand concentration, and a specific binding which represented approximately 70-80% of the total binding.
Chain of Trace amine-associated receptor 1 (Q923Y8 whole entry): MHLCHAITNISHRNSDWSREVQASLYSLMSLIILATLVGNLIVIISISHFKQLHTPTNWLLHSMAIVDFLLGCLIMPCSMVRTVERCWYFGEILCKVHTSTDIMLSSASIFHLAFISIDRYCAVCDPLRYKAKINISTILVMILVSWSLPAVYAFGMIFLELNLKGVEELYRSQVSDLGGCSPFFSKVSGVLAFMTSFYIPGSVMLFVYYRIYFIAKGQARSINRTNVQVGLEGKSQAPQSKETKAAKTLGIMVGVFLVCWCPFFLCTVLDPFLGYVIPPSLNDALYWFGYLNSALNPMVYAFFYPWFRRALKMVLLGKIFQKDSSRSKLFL

By Ki is commonly meant a dissociation constant, usually derived from enzyme kinetics or from competition with a known ligand. As for `CN(Cc1cnc[nH]1)c1cccc(F)c1`, the Ki was 2.9 nM.
For the compound `CCN(Cc1cnc[nH]1)c1ccc(CCc2ccc(Cl)cc2)cc1`, the Ki was 7.2 nM.

Values taken from ChEMBL document CHEMBL3638975, “Aminomethyl-4-imidazoles” (2013).
